Experimental data: ChEMBL document CHEMBL1141936, “Structural basis for the GSK-3beta binding affinity and selectivity against CDK-2 of 1-(4-aminofurazan-3yl)-5-dialkylaminomethyl-1H-[1,2,3] triazole-4-carboxylic acid derivatives” (Bioorg Med Chem Lett, 2005)

What was measured:
[1] = target: Glycogen synthase kinase-3 beta (Homo sapiens, UniProt P49841); assay: Inhibitory activity against GSK3-beta
[2] = target: Cyclin-dependent kinase 2 (Homo sapiens, UniProt P24941); assay: Inhibitory activity against CDK2

Glycogen synthase kinase-3 beta, sequence (P49841 whole entry): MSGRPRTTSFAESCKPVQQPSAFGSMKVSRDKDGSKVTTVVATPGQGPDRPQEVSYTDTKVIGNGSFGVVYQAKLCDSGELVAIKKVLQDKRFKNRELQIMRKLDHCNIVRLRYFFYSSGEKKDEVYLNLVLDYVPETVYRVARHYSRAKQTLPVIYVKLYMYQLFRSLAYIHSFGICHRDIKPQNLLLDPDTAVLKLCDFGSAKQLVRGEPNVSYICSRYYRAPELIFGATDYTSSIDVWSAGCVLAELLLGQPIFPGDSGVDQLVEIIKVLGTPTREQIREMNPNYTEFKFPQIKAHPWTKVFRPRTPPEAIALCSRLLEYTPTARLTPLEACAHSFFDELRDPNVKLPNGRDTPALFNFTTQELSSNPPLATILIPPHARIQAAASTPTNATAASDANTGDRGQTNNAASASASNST

IC50 [1] | IC50 [2] | SMILES
0.1 µM | 96 µM | NC1=NONC1N1N=NC(C(=O)N/N=C/c2ccncc2)C1CN1CCCCC1 (centres undefined)
0.28 µM | > 250 µM | NC1=NONC1N1N=NC(c2nnc(-c3ccncc3)[nH]2)C1CN1CCCCC1 (centres undefined)
